Where only a bound is given, the exact number is not on record here.

In general, EC50 refers to the concentration needed to bring the measured effect to its halfway point.

One assay deals with D. immitis microfilariae. Nature of the assay: Dog heart worm microfilariae motility assay. The assay is classed as cell-based. Conditions: Dirofilaria immitis, read-out: EC50 (motility inhibition).
In the next assay the test system is H. contortus larvae. Nature of the assay: H. contortus Larval Development Assay (Hc LDA). As to conditions: Haemonchus contortus, read-out: EC50 (motility inhibition).

Description for H. contortus larvae: Ruminant Gastrointestinal (H. contortus Larval Development Assay (Hc LDA)):
H.c. eggs isolated from lamb fecal matter are allowed to hatch overnight. Test compounds are diluted in DMSO and added to a 96-well plate containing appropriate media. H.c. larvae are added to each well and plates are incubated for the desired time(s). Motility is assessed using an LCD camera imaging system. Percent motility inhibition values are generated relative to the average of the DMSO-only wells.

Regarding `CN(C)c1c(C(=O)NN2CCOc3ccccc32)cnc2c(-c3cc(Cl)cc(Cl)c3)nccc12` [Example 2.1, 8-(3,5-dichlorophenyl)-N-(2,3-dihydro-1,4-benzoxazin-4-yl)-4-(dimethylamino)-1,7-naphthyridine-3-carboxamide], the results for the EC50 with D. immitis microfilariae and in the assay on H. contortus larvae were below 0.1 µg/mL and below 1 µg/mL, respectively.

For `CN(C)c1c(C(=O)NN2CCCc3ccccc32)cnc2c(-c3cc(Cl)cc(Cl)c3)nccc12` [Example 2.2, 8-(3,5-dichlorophenyl)-N-(3,4-dihydro-2H-quinolin-1-yl)-4-(dimethylamino)-1,7-naphthyridine-3-carboxamide], the EC50 was below 0.1 µg/mL in the assay with D. immitis microfilariae and below 1 µg/mL in the assay with H. contortus larvae.

Take `O=C(NN1CCOc2ccccc21)c1cnc2c(-c3cc(Cl)cc(Cl)c3)nccc2c1N1CCOCC1` [Example 2.3, 8-(3,5-dichlorophenyl)-N-(2,3-dihydro-1,4-benzoxazin-4-yl)-4-morpholino-1,7-naphthyridine-3-carboxamide]: the EC50 is below 0.1 µg/mL with D. immitis microfilariae and below 1 µg/mL in the assay on H. contortus larvae.

On to `O=C(NN1CCOc2ccccc21)c1cnc2c(-c3cc(F)cc(F)c3F)nccc2c1N1CCOCC1` [Example 2.4, N-(2,3-dihydro-1,4-benzoxazin-4-yl)-4-morpholino-8-(2,3,5-trifluorophenyl)-1,7-naphthyridine-3-carboxamide], for which the EC50 with D. immitis microfilariae is below 0.1 µg/mL; in the assay with H. contortus larvae, below 1 µg/mL.

With `CON(C)c1c(C(=O)NN2CCOc3ccccc32)cnc2c(-c3cc(F)cc(F)c3F)nccc12` [Example 2.5, N-(2,3-dihydro-1,4-benzoxazin-4-yl)-4-[methoxy(methyl)amino]-8-(2,3,5-trifluorophenyl)-1,7-naphthyridine-3-carboxamide], the values for the EC50 in the assay on D. immitis microfilariae and in the assay on H. contortus larvae were below 0.1 µg/mL and below 1 µg/mL, respectively.

Take `O=C(NN1CCOc2ccccc21)c1cnc2c(-c3cc(Cl)cc(C(F)(F)F)c3)nccc2c1N1CCOCC1` [Example 2.6, 8-[3-chloro-5-(trifluoromethyl)phenyl]-N-(2,3-dihydro-1,4-benzoxazin-4-yl)-4-morpholino-1,7-naphthyridine-3-carboxamide]: the EC50 is below 0.1 µg/mL in the assay with D. immitis microfilariae and below 1 µg/mL in the assay with H. contortus larvae.

For the compound `O=C(NN1CCOc2ccccc21)c1cnc2c(-c3cccc(Cl)c3Cl)nccc2c1N1CCOCC1` [Example 2.7, N-(2,3-dihydro-1,4-benzoxazin-4-yl)-4-morpholino-8-(2,3-dichlorophenyl)-1,7-naphthyridine-3-carboxamide], in the assay with D. immitis microfilariae, the EC50 is below 0.1 µg/mL.

Take `O=C(NN1CCOc2ccccc21)c1cnc2c(-c3cc(Cl)c(F)c(Cl)c3)nccc2c1N1CCOCC1` [Example 2.8, 8-(3,5-dichloro-4-fluoro-phenyl)-N-(2,3-dihydro-1,4-benzoxazin-4-yl)-4-morpholino-1,7-naphthyridine-3-carboxamide]: the EC50 in the assay on D. immitis microfilariae was below 0.1 µg/mL; in the assay with H. contortus larvae, below 1 µg/mL.

In the case of `CN(C)c1c(C(=O)NN2CCOc3ccccc32)cnc2c(-c3cc(Cl)cc(Cl)c3)ccnc12` [Example 3.1, 8-(3,5-dichlorophenyl)-N-(2,3-dihydro-1,4-benzoxazin-4-yl)-4-(dimethylamino)-1,5-naphthyridine-3-carboxamide], the values for the EC50 in the assay on D. immitis microfilariae and in the assay with H. contortus larvae were below 0.1 µg/mL and below 1 µg/mL, respectively.

As to `CN(C)c1c(C(=O)NN2CCOc3ccccc32)cnc2c(-c3cccc(Cl)c3Cl)ccnc12` [Example 3.2, 8-(2,3-dichlorophenyl)-N-(2,3-dihydro-1,4-benzoxazin-4-yl)-4-(dimethylamino)-1,5-naphthyridine-3-carboxamide], the EC50 in the assay with D. immitis microfilariae is below 0.1 µg/mL; in the assay on H. contortus larvae, below 1 µg/mL.

Turning to `O=C(NN1CCOc2ccccc21)c1cnc2c(-c3cc(Cl)cc(Cl)c3)ccnc2c1N1CCOCC1` [Example 3.3, 8-(3,5-dichlorophenyl)-N-(2,3-dihydro-1,4-benzoxazin-4-yl)-4-morpholino-1,5-naphthyridine-3-carboxamide], the EC50 in the assay on D. immitis microfilariae is below 0.1 µg/mL; in the assay with H. contortus larvae, below 1 µg/mL.

Consider `O=C(NN1CCOc2ccccc21)c1cnc2c(-c3cc(F)cc(F)c3F)ccnc2c1N1CCOCC1` [Example 3.4, N-(2,3-dihydro-1,4-benzoxazin-4-yl)-4-morpholino-8-(2,3,5-trifluorophenyl)-1,5-naphthyridine-3-carboxamide], for which the concentration giving a half-maximal response (EC50) is below 0.1 µg/mL in the assay on D. immitis microfilariae and below 1 µg/mL with H. contortus larvae.

For `CN(C)c1c(C(=O)NN2CCOc3ccccc32)ccc2c(-c3cc(Cl)cc(Cl)c3)cccc12` [Example 4.1, 5-(3,5-dichlorophenyl)-N-(2,3-dihydro-1,4-benzoxazin-4-yl)-1-(dimethylamino)naphthalene-2-carboxamide], the figures for the EC50 in the assay with D. immitis microfilariae and in the assay with H. contortus larvae were below 0.1 µg/mL and below 1 µg/mL, respectively.

With `CN(C)c1c(C(=O)NN2CCOc3ccccc32)cnc2c(-c3cc(Cl)cc(Cl)c3)cccc12` [Example 5.1, 8-(3,5-dichlorophenyl)-N-(2,3-dihydro-4H-benzo[b][1,4]oxazin-4-yl)-4-(dimethylamino)quinoline-3-carboxamide], the EC50 in the assay with D. immitis microfilariae is below 0.1 µg/mL; in the assay on H. contortus larvae, below 1 µg/mL.

`O=C(NN1CCOc2ccccc21)c1cnc2c(-c3cccc(Cl)c3Cl)cccc2c1N1CCOCC1` [Example 5.2, 8-(2,3-dichlorophenyl)-N-(2,3-dihydro-1,4-benzoxazin-4-yl)-4-morpholino-quinoline-3-carboxamide]: the EC50 with D. immitis microfilariae is below 0.1 µg/mL; in the assay on H. contortus larvae, below 1 µg/mL.

In the case of `O=C(NN1CCOc2ccccc21)c1cnc2c(-c3cc(Cl)cc(Cl)c3)cccc2c1N1CCOCC1` [Example 5.3, 8-(3,5-dichlorophenyl)-N-(2,3-dihydro-1,4-benzoxazin-4-yl)-4-morpholino-quinoline-3-carboxamide], the figures for the EC50 with D. immitis microfilariae and with H. contortus larvae were below 0.1 µg/mL and below 1 µg/mL, respectively.

In the case of `O=C(NN1CCOc2ccccc21)c1cnc2c(-c3cc(F)cc(F)c3F)c(F)ccc2c1N1CCOCC1` [Example 5.4, N-(2,3-dihydro-1,4-benzoxazin-4-yl)-7-fluoro-4-morpholino-8-(2,3,5-trifluorophenyl)quinoline-3-carboxamide], the results for the EC50 in the assay on D. immitis microfilariae and in the assay on H. contortus larvae were below 0.1 µg/mL and below 1 µg/mL, respectively.

Regarding `O=C(NN1CCOc2ccccc21)c1cnc2c(-c3cc(F)cc(F)c3F)cccc2c1N1CCOCC1` [Example 5.6, N-(2,3-dihydro-1,4-benzoxazin-4-yl)-4-morpholino-8-(2,3,5-trifluorophenyl)quinoline-3-carboxamide], the EC50 was below 0.1 µg/mL in the assay with D. immitis microfilariae and below 1 µg/mL with H. contortus larvae.

As to `O=C(NN1CCOc2ccccc21)c1cnc2c(-c3cc(Cl)cc(Cl)c3)c(F)ccc2c1N1CCOCC1` [Example 5.7, 8-(3,5-dichlorophenyl)-N-(2,3-dihydro-1,4-benzoxazin-4-yl)-7-fluoro-4-morpholino-quinoline-3-carboxamide], the EC50 was below 0.1 µg/mL in the assay with D. immitis microfilariae and below 1 µg/mL in the assay with H. contortus larvae.

Regarding `O=C(NN1CCOc2ccccc21)c1cnc2c(-c3cc(F)cc(F)c3)c(F)ccc2c1N1CCOCC1` [Example 5.8, 8-(3,5-difluorophenyl)-N-(2,3-dihydro-1,4-benzoxazin-4-yl)-7-fluoro-4-morpholino-quinoline-3-carboxamide], the values for the EC50 in the assay on D. immitis microfilariae and in the assay on H. contortus larvae were below 0.1 µg/mL and below 1 µg/mL, respectively.

As for `O=C(NN1CCOc2ccccc21)c1cnc2c(-c3cc(Cl)nc(C(F)(F)F)c3)cccc2c1N1CCOCC1` [Example 5.11, 8-[2-chloro-6-(trifluoromethyl)-4-pyridyl]-N-(2,3-dihydro-1,4-benzoxazin-4-yl)-4-morpholino-quinoline-3-carboxamide], the concentration for a half-maximal effect (EC50) is below 0.1 µg/mL with D. immitis microfilariae and below 1 µg/mL in the assay with H. contortus larvae.

As for `O=C(NN1CCOc2ccccc21)c1cnc2c(-c3cc(Cl)nc(Cl)c3)cccc2c1N1CCOCC1` [Example 5.12, 8-(2,6-dichloro-4-pyridyl)-N-(2,3-dihydro-1,4-benzoxazin-4-yl)-4-morpholino-quinoline-3-carboxamide], the values for the 50% effective concentration (EC50) with D. immitis microfilariae and in the assay on H. contortus larvae were below 0.1 µg/mL and below 1 µg/mL, respectively.

Consider `O=C(NN1CCOc2ccccc21)c1cnc2c(-c3cc(Cl)cc(Cl)c3F)cccc2c1N1CCOCC1` [Example 5.13, 8-(3,5-dichloro-2-fluoro-phenyl)-N-(2,3-dihydro-1,4-benzoxazin-4-yl)-4-morpholino-quinoline-3-carboxamide], for which the EC50 was below 0.1 µg/mL in the assay on D. immitis microfilariae and below 1 µg/mL with H. contortus larvae.

On to `O=C(NN1CCOc2ccccc21)c1cnc2c(-c3cc(Cl)cnc3F)cccc2c1N1CCOCC1` [Example 5.14, 8-(5-chloro-2-fluoro-3-pyridyl)-N-(2,3-dihydro-1,4-benzoxazin-4-yl)-4-morpholino-quinoline-3-carboxamide], for which the EC50 in the assay with D. immitis microfilariae was below 0.1 µg/mL; in the assay on H. contortus larvae, below 1 µg/mL.

`O=C(NN1CCOc2ccccc21)c1cnc2c(-c3cc(F)cc(F)c3F)cccc2c1N1CCS(=O)(=O)CC1` [Example 5.15, N-(2,3-dihydro-1,4-benzoxazin-4-yl)-4-(1,1-dioxo-1,4-thiazinan-4-yl)-8-(2,3,5-trifluorophenyl)quinoline-3-carboxamide]: the concentration for a half-maximal effect (EC50) is below 0.1 µg/mL in the assay with D. immitis microfilariae and below 1 µg/mL in the assay with H. contortus larvae.

In the case of `O=C(NN1CCOc2ccccc21)c1cnc2c(-c3cc(F)c(F)cc3F)cccc2c1N1CCOCC1` [Example 5.16, N-(2,3-dihydro-1,4-benzoxazin-4-yl)-4-morpholino-8-(2,4,5-trifluorophenyl)quinoline-3-carboxamide], the results for the EC50 with D. immitis microfilariae and in the assay on H. contortus larvae were below 0.1 µg/mL and below 1 µg/mL, respectively.

On to `O=C(NN1CCOc2ccccc21)c1cnc2c(-c3cncc(Cl)n3)cccc2c1N1CCOCC1` [Example 5.17, 8-(6-chloropyrazin-2-yl)-N-(2,3-dihydro-1,4-benzoxazin-4-yl)-4-morpholino-quinoline-3-carboxamide], for which the concentration giving a half-maximal response (EC50) with D. immitis microfilariae is below 0.1 µg/mL; in the assay with H. contortus larvae it was below 1 µg/mL.

With `O=C(NN1CCOc2ccccc21)c1cnc2c(-c3cncc(Cl)c3Cl)cccc2c1N1CCOCC1` [Example 5.18, 8-(4,5-dichloro-3-pyridyl)-N-(2,3-dihydro-1,4-benzoxazin-4-yl)-4-morpholino-quinoline-3-carboxamide], the EC50 in the assay on D. immitis microfilariae is below 0.1 µg/mL; in the assay on H. contortus larvae, below 1 µg/mL.

Turning to `O=C(NN1CCOc2ccccc21)c1cnc2c(-c3cc(Cl)cc(F)c3F)cccc2c1N1CCOCC1` [Example 5.19, 8-(5-chloro-2,3-difluoro-phenyl)-N-(2,3-dihydro-1,4-benzoxazin-4-yl)-4-morpholino-quinoline-3-carboxamide], the EC50 was below 0.1 µg/mL in the assay with D. immitis microfilariae and below 1 µg/mL with H. contortus larvae.

The values are drawn from patent US12448391B2, “Bicyclic derivatives for treating endoparasites” (Elanco Tiergesundheit AG, priority 2019, dated 2025).
